In patent publication US20120095215A1, “MEDICAL COMPOSITION FOR TREATMENT OR PROPHYLAXIS OF EYE DISEASES” (UBE INDUSTRIES, LTD., priority 2009, published 2012) one finds IC50 data, which are given here for five compounds.

Test [1] concerns the target T1, αvβ3 protein (Homo sapiens, UniProt P05106+P06756).
T1 construct: purchased CHEMICON CORP; CC1019
Briefly: αvβ3 protein binding test (fluorescence polarization, FITC-Echistatin). The conditions noted are these: inhibition of binding of Echistatin and αvβ3 protein, 37° C., 30 minutes. The protocol: The method of Davis et al. (Proc. Natl. Acad. Sci., 96(16), 9269 (1999)) was partially modified and carried out.
By using Echistatin (available from SIGMA), Fluorescein Amine Labeling Kit for Peptides and Proteins (available from PanVera Corp., P2058) and Gel Filtration of Proteins Kit (P2101, PanVera Corp.), fluorescein isothiocyanate (hereinafter abbreviated to as FITC)-Echistatin was prepared. Then, with 137 μL of Tris-buffer (10 mM Tris base, 1 mM CaCl2, 1 mM MgCl2, 1 mM MnCl2, pH 7.4) were mixed 1 μL of 200 nM FITC-Echistatin (final concentration: 1 nM) and 2 μL of […] bovine serum albumin (hereinafter abbreviated to as BSA; available from SIGMA) (final concentration: 1 mg/mL). To the mixture was added 10 μL of the test compound, then, 50 μL of 4 nM αvβ3 (CC1019, available from CHEMICON CORP.) (final concentration: 1 nM) was added to the mixture and the resulting mixture was incubated at 37° C. for 30 minutes. By measuring fluorescence polarization degrees with BEACON2000 (available from PanVera Corp.), binding of Echistatin and αvβ3 protein was evaluated. The concentration (IC50 value) of the test compound necessary for inhibiting 50% of binding of Echistatin and αvβ3 protein was calculated by using EXSAS (available from Arm Systecs Co. Ltd.).

The subject of test [2] is HUVEC (human umbilical vein endothelial cell), αvβ3 expressing cell. Briefly: αvβ3 expressing cell adhesion test (HUVEC on human vitronectin). The test is classed as cell-based. The conditions noted are these: HUVEC binding to human vitronectin, 50% human serum-containing DMEM, 1 hour; read-out: αvβ3 developed cell adhesion inhibition IC50 value. The protocol: The method of Juliano, et al. (Exp. Cell Res., 225(1), 132 (1996)) was partially modified and carried out.
Human vitronectin (available from CHEMICON CORP.) was adjusted to 10 μg/mL with phosphate buffered saline (hereinafter abbreviated to as PBS). This was apportioned on a 96-well plate (MS9586F, available from SUMIRON Co., Ltd.) with 100 μL/well, subjected to coating at room temperature for 1 hour, then, the coating solution was removed and dried. Thereafter, blocking treatment was carried out by 1.0% BSA dissolved in Dulbecco's Modified Eagle's Medium (hereinafter abbreviated to as DMEM) for 1 hour, followed by washing with PBS, and the obtained material was used for the adhesion test as a coating plate. HUVEC (human umbilical vein endothelial cell) (available from Clonetics Corp.) cultured in an endocerial cell basal medium EBM2 (available from Clonetics Corp.) containing growth factor EGM2 (available from Clonetics Corp.) and 10% fatal bovin serum (hereinafter abbreviated to as FBS) was peeled by using trypsin-ethylenediamine tetraacetic acid, washed by using PBS and recovered, and then, suspended in 50% human serum-containing DMEM to prepare a cell solution of HUVEC. To human vitronectin coating plates was added a 50% human serum-containing DMEM solution containing the HUVEC cell solution and the test compound each 50 μL/plate to start the adhesion test. […]

Test [3] deals with T2, αvβ5 protein (Homo sapiens, UniProt P06756+P18084).
T2 construct: purchased CHEMICON Corp. CC1023
T2 sequence (P06756 31-889 limits assumed): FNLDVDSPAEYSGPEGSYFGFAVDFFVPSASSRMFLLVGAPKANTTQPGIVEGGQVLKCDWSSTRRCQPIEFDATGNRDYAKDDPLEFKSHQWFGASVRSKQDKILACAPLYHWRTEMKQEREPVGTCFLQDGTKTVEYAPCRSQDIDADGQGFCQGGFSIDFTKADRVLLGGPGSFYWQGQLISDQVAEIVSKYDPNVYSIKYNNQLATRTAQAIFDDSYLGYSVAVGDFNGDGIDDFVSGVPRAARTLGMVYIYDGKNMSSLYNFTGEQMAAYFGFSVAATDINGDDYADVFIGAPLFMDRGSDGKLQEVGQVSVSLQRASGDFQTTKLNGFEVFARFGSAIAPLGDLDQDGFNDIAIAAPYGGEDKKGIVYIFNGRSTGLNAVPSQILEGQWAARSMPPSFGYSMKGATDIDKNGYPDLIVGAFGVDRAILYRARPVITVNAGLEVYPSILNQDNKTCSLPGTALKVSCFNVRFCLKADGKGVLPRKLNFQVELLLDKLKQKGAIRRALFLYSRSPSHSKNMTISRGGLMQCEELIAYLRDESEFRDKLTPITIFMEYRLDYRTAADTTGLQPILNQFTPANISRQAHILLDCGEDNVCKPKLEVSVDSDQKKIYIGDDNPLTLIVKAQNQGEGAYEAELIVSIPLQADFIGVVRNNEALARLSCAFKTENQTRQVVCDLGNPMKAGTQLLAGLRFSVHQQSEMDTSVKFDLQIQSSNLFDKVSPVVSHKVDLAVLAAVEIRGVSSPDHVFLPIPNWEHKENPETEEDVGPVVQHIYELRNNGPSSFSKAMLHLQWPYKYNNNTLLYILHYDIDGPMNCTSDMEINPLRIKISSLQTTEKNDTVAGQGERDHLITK
T2 sequence (P06756 891-1048 partner limits assumed): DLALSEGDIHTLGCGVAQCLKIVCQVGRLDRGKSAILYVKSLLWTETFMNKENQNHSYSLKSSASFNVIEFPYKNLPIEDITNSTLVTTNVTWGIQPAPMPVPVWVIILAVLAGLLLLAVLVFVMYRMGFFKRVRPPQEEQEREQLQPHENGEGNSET
T2 sequence (P18084 24-799): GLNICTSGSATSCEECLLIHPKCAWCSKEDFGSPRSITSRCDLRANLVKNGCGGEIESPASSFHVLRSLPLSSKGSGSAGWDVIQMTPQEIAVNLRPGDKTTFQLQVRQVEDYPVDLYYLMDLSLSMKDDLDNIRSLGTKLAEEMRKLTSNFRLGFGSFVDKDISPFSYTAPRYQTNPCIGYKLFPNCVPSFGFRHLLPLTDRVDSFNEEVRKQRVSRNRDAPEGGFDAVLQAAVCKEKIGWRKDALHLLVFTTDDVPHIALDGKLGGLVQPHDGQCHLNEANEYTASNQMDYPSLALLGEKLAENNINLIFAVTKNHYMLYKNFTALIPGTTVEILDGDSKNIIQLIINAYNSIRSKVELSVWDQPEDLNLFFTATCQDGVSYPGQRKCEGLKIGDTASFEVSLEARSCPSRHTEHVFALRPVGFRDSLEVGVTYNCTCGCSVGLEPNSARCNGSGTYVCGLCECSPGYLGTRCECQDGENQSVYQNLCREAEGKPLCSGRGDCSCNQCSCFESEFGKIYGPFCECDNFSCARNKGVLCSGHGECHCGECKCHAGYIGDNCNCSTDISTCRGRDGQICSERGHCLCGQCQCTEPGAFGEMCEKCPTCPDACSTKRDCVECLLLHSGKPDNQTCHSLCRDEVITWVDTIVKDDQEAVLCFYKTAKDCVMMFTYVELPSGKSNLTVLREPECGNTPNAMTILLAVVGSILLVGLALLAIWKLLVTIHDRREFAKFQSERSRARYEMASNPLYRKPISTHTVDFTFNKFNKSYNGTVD
Put plainly: αvβ5 protein binding test (Biotin-Echistatin plate assay). The note with it: inhibition of binding between Echistatin and αvβ5 protein. The protocol:
The method of C. P. Carron et al. (J. Endocrinology, 165, 587 (2000)) was partially modified and carried out.
By using Echistatin (available from Bachem) and EZ-Link NHS-Biotin Reagent (available from Pierce Biotechnology Inc.), Biotin-Echistatin was prepared. Then, αvβ5 (CC1023, available from CHEMICON Corp.) was mixed with a Tris buffer solution (20 mM tris(hydroxymethyl)aminomethane, 150 mM NaCl, 1 mM CaCl2, 1 mM MgCl2, 1 mM MnCl2, pH 7.5), the mixture was added to Nunc immunoplate Maxisoap (available from Nalge Nunc Int. Co.), and incubated at room temperature overnight. The solution was removed, a Block Ace (available from Dai Nippon Sumitomo Pharma Co., Ltd.) solution was added to the residue and the mixture was incubated at room temperature for 2 hours, then, the solution was again removed and the residue was washed with 0.05% Tween-PBS. Next, a Tris buffer solution containing 10 mg/mL of bovine serum albumin (hereinafter abbreviated to as BSA; available from SIGMA) and the test compound was added to the mixture, and the resulting mixture was incubated at room temperature for 30 minutes. […] An absorbance at 495 nm was measured by Microplate reader (Spectra Fluor, available from TECAN Group, Ltd.) to evaluate binding of Echistatin and αvβ5 protein. […]

Each structure is given as a SMILES string. Counter-ions that a name gives are not always drawn.

T1 sequence (P06756 31-889 limits assumed): as the sequence (P06756 31-889 limits assumed) above
T1 sequence (P06756 891-1048 partner limits assumed): as the sequence (P06756 891-1048 partner limits assumed) above
T1 sequence (P05106 27-788): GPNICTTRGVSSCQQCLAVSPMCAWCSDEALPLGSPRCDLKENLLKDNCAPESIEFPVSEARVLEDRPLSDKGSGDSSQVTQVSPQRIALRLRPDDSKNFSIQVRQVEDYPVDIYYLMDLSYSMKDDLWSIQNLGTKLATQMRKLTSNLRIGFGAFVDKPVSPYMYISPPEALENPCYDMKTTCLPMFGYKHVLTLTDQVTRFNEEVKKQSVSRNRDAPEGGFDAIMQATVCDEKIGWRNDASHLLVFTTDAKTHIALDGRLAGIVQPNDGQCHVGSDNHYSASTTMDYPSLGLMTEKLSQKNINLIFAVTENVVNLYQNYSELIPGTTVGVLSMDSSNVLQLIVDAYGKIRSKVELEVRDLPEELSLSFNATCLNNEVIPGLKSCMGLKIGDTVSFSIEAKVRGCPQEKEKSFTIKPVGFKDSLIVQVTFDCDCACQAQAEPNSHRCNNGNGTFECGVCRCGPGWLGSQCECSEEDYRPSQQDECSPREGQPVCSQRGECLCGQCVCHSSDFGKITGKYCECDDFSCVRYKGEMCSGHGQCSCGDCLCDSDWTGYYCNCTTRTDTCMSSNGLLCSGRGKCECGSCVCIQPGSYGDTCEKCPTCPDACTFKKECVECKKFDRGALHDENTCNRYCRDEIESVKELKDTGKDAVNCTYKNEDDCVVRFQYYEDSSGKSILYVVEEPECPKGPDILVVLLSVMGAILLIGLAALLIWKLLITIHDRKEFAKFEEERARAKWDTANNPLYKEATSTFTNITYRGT

For `CNc1cccc(CCOc2ccc3c(c2)CN(CC(F)(F)F)C(=O)C(CC(=O)O)C3)n1` (racemic) [Compund A, 8-[2-[6-(methylamino)pyridin-2-yl]-1-ethoxy]-3-oxo-2-(2,2,2-trifluoroethyl)-2,3,4,5-tetrahydro-1H-2-benzazepin-4-acetic acid, reference compound], the IC50 in test [1] was determined as 7.1 nM; in test [2], 161 nM. Turning to `O=C(O)C[C@@H]1Cc2ccc(OCCc3cn4c(n3)NCCC4)cc2CN(CC(F)(F)F)C1=O` [Example 4, (4S)-3-oxo-8-[2-(5,6,7,8-tetrahydroimidazo[1,2-a]pyrimidin-2-yl)ethoxy]-2-(2,2,2-trifluoroethyl)-2,3,4,5-tetrahydro-1H-2-benzazepin-4-acetic acid], the IC50 in test [1] was found to be 0.6 nM; in test [3], 0.2 nM. On to `O=C(O)C[C@@H]1Cc2ccc(OCCCNc3ccccn3)cc2CN(CC(F)(F)F)C1=O` [Compund B, (4S)-3-oxo-8-[3-(pyridin-2-ylamino)-1-propyloxy]-2-(2,2,2-trifluoroethyl)-2,3,4,5-tetrahydro-1H-2-benzazepin-4-acetic acid, reference compound], for which the IC50 in test [1] is 2.6 nM; in test [3], 1.3 nM. Regarding `O=C(O)CC1Cc2ccc(OCCc3cn4c(n3)NCCC4)cc2CN(CC(F)(F)F)C1=O` (stereo not drawn) [Example 2, 3-oxo-8-[2-(5,6,7,8-tetrahydroimidazo[1,2-a]pyrimidin-2-yl)ethoxy]-2-(2,2,2-trifluoroethyl)-2,3,4,5-tetrahydro-1H-2-benzazepin-4-acetate trifluoroacetate], the IC50 was found to be 1.2 nM in test [1] and 61 nM in test [2].

Consider `O=C(O)CC1Cc2ccc(OCCc3cn4c(n3)NCCN4)cc2CN(CC(F)(F)F)C1=O` (stereo not drawn) [Example 3, 3-Oxo-8-[2-(1,2,3,4-tetrahydroimidazo[1,2-b][1,2,4]triazin-6-yl)ethoxy]-2-(2,2,2-trifluoroethyl)-2,3,4,5-tetrahydro-1H-2-benzazepin-4-acetate trifluoroacetate], for which the IC50 in test [1] was 1.3 nM.
